According to patent US20080242646A1, “Split dose corticosteroid therapy” (priority 2007, published 2008):
Read-outs that look alike come from different tables or passages of the source.

Assays:
[1] = cited from earlier work; for Equivalent dose, Equal to 1 mg prednisolone / Equivalent dose, Equal to 5 mg prednisolone: BNF guidelines
CRP = CRP measurements in the 14 week blinded randomized study; type: in vivo, human; conditions: ITT (LOCF)
Description: The study population had active rheumatoid arthritis.
The powered study ended after these first 10 weeks. […] A schematic of the study design is shown below.

[2] = system: subjects with active rheumatoid arthritis; conditions: ITT (LOCF)
Description: A visual analog scale (VAS) provides a measure of a one-dimensional quantity. A VAS generally utilizes a representation of distance, such as a picture of a line with hash marks drawn at regular distance intervals, e.g., ten 1-cm intervals. […] This procedure provides a simple and rapid approach to obtaining quantitative information about how the patient is experiencing pain. VAS scales can also be used, e.g., to measure fatigue.
(§1) We conducted a 14 week blinded, randomized study including a split dose corticosteroid therapy or placebo, with regular CRP and inflammatory cytokine measurements. The study population had active rheumatoid arthritis. The subject must otherwise have been in good general health.
(§2) Screening Visit • Day 1 (Baseline Visit)—Start of Run-In Period • Day 14 (±2 days)—End of Run-In Period/Start of Treatment Period • Day 42 (±2 days) • Day 70 (±2 days)—End of Treatment Period/Start of Withdrawal Period • Day 98 (±2 days)—End of Study
(§3) All eligible subjects received DMARD therapy in a stable dose. Subjects were evaluated for study eligibility at the Screening visit, which was conducted within 14 days before the first dose of study drug. The subject provided written informed consent to participate in the study before any Screening laboratory samples were collected or evaluations performed.
(§4) All subjects were given 3 mg prednisolone alone for 2 weeks (Run-In Period). Subjects were then randomized into treatment groups to additionally receive 10 mg paroxetine, 20 mg paroxetine or placebo tablets for 8 weeks (Combination Treatment Period). The powered study ended after these first 10 weeks. All subjects continued in an un-powered part of the study for an additional 4 weeks (Withdrawal Period). In this portion of the study, half of the subjects on 10 mg or 20 mg paroxetine plus 3 mg prednisolone stopped taking paroxetine, and instead took 3 mg prednisolone plus placebo, while the other half stopped taking prednisolone, and instead took either dose of paroxetine plus placebo. Similarly, half of the subjects on prednisolone plus placebo stopped the prednisolone, and instead took two placebo tablets, while the other half continued the regimen of 3 mg prednisolone plus placebo.

[3] = system: subjects with active rheumatoid arthritis; conditions: ITT, missing = non-responder, subjects (% of arm)
Description: ACR-20/50/70 refers to a composite improvement of 20%, 50% or 70% in swollen joint count, tender joint count, and 3 or more of the following 5 measures: patient's own global assessment of RA disease activity; physician's global assessment of disease activity; patient's own assessment of pain due to RA; acute-phase reactant (CRP); and patient's self-addressed disability (Health Assessment Questionnaire).
as §1, §2, §3, §4

[4] = Day 14 (end of run-in, 3 mg prednisolone alone in all arms)

C[C@]12C=CC(=O)C=C1CC[C@H]1[C@@H]3C[C@@H](O)[C@](O)(C(=O)CO)[C@@]3(C)C[C@H](O)[C@@]12F [triamcinolone]
Equivalent dose, Equal to 1 mg prednisolone [1]: 0.8 mg
Equivalent dose, Equal to 5 mg prednisolone [1]: 4 mg
Broadly similar dose from clinical dosing equivalence ([1]; nasal administration, BNF 37 Mar. 1999): 110 µg

methyl prednisone
Equivalent dose, Equal to 1 mg prednisolone [1]: 0.8 mg
Equivalent dose, Equal to 5 mg prednisolone [1]: 4 mg

CC(=O)OCC(=O)[C@@]12N=C(C)O[C@@H]1C[C@H]1[C@@H]3CCC4=CC(=O)C=C[C@]4(C)[C@H]3[C@@H](O)C[C@@]12C [deflazacort]
Equivalent dose, Equal to 1 mg prednisolone [1]: 1.2 mg
Equivalent dose, Equal to 5 mg prednisolone [1]: 6 mg

C[C@]12C=CC(=O)C=C1CC[C@@H]1[C@@H]2[C@@H](O)C[C@@]2(C)[C@H]1CC[C@]2(O)C(=O)CO [3 mg Prednisolone + Placebo, prednisolone]
CRP % Change from baseline, Max (CRP; [4]): 1700.0%
CRP % Change from baseline, Mean (Std Dev) (CRP; [4]): 7.11 (215.970) %
CRP % Change from baseline, Median (CRP; [4]): −32.26%
CRP % Change from baseline, Min (CRP; [4]): −95.8%
CRP Change from baseline, Max (CRP; [4]): 77.9
CRP Change from baseline, Mean (Std Dev) (CRP; [4]): −7.40 (20.149)
CRP Change from baseline, Median (CRP; [4]): −1.70
CRP Change from baseline, Min (CRP; [4]): −83.2
CRP Value, Max (CRP; [4]): 107.3
CRP Value, Mean (Std Dev) (CRP; [4]): 11.42 (17.413)
CRP Value, Median (CRP; [4]): 6.20
CRP Value, Min (CRP; [4]): 0.3
CRP % Change from baseline, Max (CRP; Day 42): 187.3%
CRP % Change from baseline, Mean (Std Dev) (CRP; Day 42): −17.67 (58.589) %
CRP % Change from baseline, Median (CRP; Day 42): −23.53%
CRP % Change from baseline, Min (CRP; Day 42): −92.5%
CRP Change from baseline, Max (CRP; Day 42): 21.5
CRP Change from baseline, Mean (Std Dev) (CRP; Day 42): −8.61 (18.009)
CRP Change from baseline, Median (CRP; Day 42): −1.00
CRP Change from baseline, Min (CRP; Day 42): −81.4
CRP Value, Max (CRP; Day 42): 70.6
CRP Value, Mean (Std Dev) (CRP; Day 42): 10.22 (12.443)
CRP Value, Median (CRP; Day 42): 5.40
CRP Value, Min (CRP; Day 42): 0.3
CRP % Change from baseline, Max (CRP; Day 70): 187.3%
CRP % Change from baseline, Mean (Std Dev) (CRP; Day 70): −13.66 (64.905) %
CRP % Change from baseline, Median (CRP; Day 70): −29.27%
CRP % Change from baseline, Min (CRP; Day 70): −92.8%
CRP Change from baseline, Max (CRP; Day 70): 15.5
CRP Change from baseline, Mean (Std Dev) (CRP; Day 70): −8.95 (18.996)
CRP Change from baseline, Median (CRP; Day 70): −1.20
CRP Change from baseline, Min (CRP; Day 70): −87.7
CRP Value, Max (CRP; Day 70): 64.6
CRP Value, Mean (Std Dev) (CRP; Day 70): 9.88 (11.956)
CRP Value, Median (CRP; Day 70): 5.70
CRP Value, Min (CRP; Day 70): 0.2
Patient Pain Assessment (VAS) score % Change from baseline, Max [2, 4]: 106.7%
Patient Pain Assessment (VAS) score % Change from baseline, Mean (Std Dev) [2, 4]: −13.65 (38.137) %
Patient Pain Assessment (VAS) score % Change from baseline, Median [2, 4]: −11.11%
Patient Pain Assessment (VAS) score % Change from baseline, Min [2, 4]: −94.7%
Patient Pain Assessment (VAS) score Change from baseline, Max [2, 4]: 35.0
Patient Pain Assessment (VAS) score Change from baseline, Mean (Std Dev) [2, 4]: −7.73 (19.337)
Patient Pain Assessment (VAS) score Change from baseline, Median [2, 4]: −5.00
Patient Pain Assessment (VAS) score Change from baseline, Min [2, 4]: −81.0
Patient Pain Assessment (VAS) score Value, Max [2, 4]: 97.0
Patient Pain Assessment (VAS) score Value, Mean (Std Dev) [2, 4]: 45.58 (25.283)
Patient Pain Assessment (VAS) score Value, Median [2, 4]: 47.00
Patient Pain Assessment (VAS) score Value, Min [2, 4]: 2.0
Patient Pain Assessment (VAS) score % Change from baseline, Max ([2]; Day 42): 186.7%
Patient Pain Assessment (VAS) score % Change from baseline, Mean (Std Dev) ([2]; Day 42): −19.23 (47.955) %
Patient Pain Assessment (VAS) score % Change from baseline, Median ([2]; Day 42): −23.44%
Patient Pain Assessment (VAS) score % Change from baseline, Min ([2]; Day 42): −93.5%
Patient Pain Assessment (VAS) score Change from baseline, Max ([2]; Day 42): 56.0
Patient Pain Assessment (VAS) score Change from baseline, Mean (Std Dev) ([2]; Day 42): −10.57 (21.630)
Patient Pain Assessment (VAS) score Change from baseline, Median ([2]; Day 42): −9.00
Patient Pain Assessment (VAS) score Change from baseline, Min ([2]; Day 42): −64.0
Patient Pain Assessment (VAS) score Value, Max ([2]; Day 42): 97.0
Patient Pain Assessment (VAS) score Value, Mean (Std Dev) ([2]; Day 42): 42.74 (26.143)
Patient Pain Assessment (VAS) score Value, Median ([2]; Day 42): 37.00
Patient Pain Assessment (VAS) score Value, Min ([2]; Day 42): 2.0
Patient Pain Assessment (VAS) score % Change from baseline, Max ([2]; Day 70): 233.3%
Patient Pain Assessment (VAS) score % Change from baseline, Mean (Std Dev) ([2]; Day 70): −17.84 (57.121) %
Patient Pain Assessment (VAS) score % Change from baseline, Median ([2]; Day 70): −25.64%
Patient Pain Assessment (VAS) score % Change from baseline, Min ([2]; Day 70): −90.5%
Patient Pain Assessment (VAS) score Change from baseline, Max ([2]; Day 70): 49.0
Patient Pain Assessment (VAS) score Change from baseline, Mean (Std Dev) ([2]; Day 70): −12.28 (23.864)
Patient Pain Assessment (VAS) score Change from baseline, Median ([2]; Day 70): −10.00
Patient Pain Assessment (VAS) score Change from baseline, Min ([2]; Day 70): −69.0
Patient Pain Assessment (VAS) score Value, Max ([2]; Day 70): 97.0
Patient Pain Assessment (VAS) score Value, Mean (Std Dev) ([2]; Day 70): 41.04 (25.466)
Patient Pain Assessment (VAS) score Value, Median ([2]; Day 70): 39.00
Patient Pain Assessment (VAS) score Value, Min ([2]; Day 70): 2.0
ACR20 response from baseline: No [3, 4]: 53 (77)
ACR20 response from baseline: Yes [3, 4]: 16 (23)
ACR50 response from baseline: No [3, 4]: 64 (93)
ACR50 response from baseline: Yes [3, 4]: 5 (7)
ACR70 response from baseline: No [3, 4]: 66 (96)
ACR70 response from baseline: Yes [3, 4]: 3 (4)
ACR20 response from baseline: No ([3]; Day 42): 44 (64)
ACR20 response from baseline: Yes ([3]; Day 42): 25 (36)
ACR50 response from baseline: No ([3]; Day 42): 60 (87)
ACR50 response from baseline: Yes ([3]; Day 42): 9 (13)
ACR70 response from baseline: No ([3]; Day 42): 67 (97)
ACR70 response from baseline: Yes ([3]; Day 42): 2 (3)
ACR20 response from baseline: No ([3]; Day 70): 39 (57)
ACR20 response from baseline: Yes ([3]; Day 70): 30 (43)
ACR50 response from baseline: No ([3]; Day 70): 55 (80)
ACR50 response from baseline: Yes ([3]; Day 70): 14 (20)
ACR70 response from baseline: No ([3]; Day 70): 65 (94)
ACR70 response from baseline: Yes ([3]; Day 70): 4 (6)

C[C@]12CCC(=O)C=C1CC[C@@H]1[C@@H]2[C@@H](O)C[C@@]2(C)[C@H]1CC[C@]2(O)C(=O)CO [hydrocortisone]
Equivalent dose, Equal to 1 mg prednisolone [1]: 4 mg
Equivalent dose, Equal to 5 mg prednisolone [1]: 20 mg

CC(=O)OCC(=O)[C@@]1(O)CC[C@H]2[C@@H]3CCC4=CC(=O)CC[C@]4(C)[C@H]3C(=O)C[C@@]21C [cortisone acetate]
Equivalent dose, Equal to 1 mg prednisolone [1]: 5 mg
Equivalent dose, Equal to 5 mg prednisolone [1]: 25 mg
